This data set deals with RAW264.7 macrophages. As to the kind of experiment: In vitro viability assay of NPs (AlamarBlue). In kind it is cell-based, murine. As to conditions: RAW264.7, 24 h, all concentrations tested (NPs 0.011-0.25 mg/ml; free Dx at the concentration encapsulated); % respect to the control. As to the method:
The RAW264.7 (murine macrophages) cell line was purchased from Sigma-Aldrich. RAW264.7 cells are an in vitro model useful to test the potential anti-inflammatory activity of new drugs. Cells were maintained over permissive conditions in high-glucose Dulbecco's modified Eagle's medium (DMEM; Sigma, Saint Louis, MO, USA) supplemented with 10% fetal bovine serum (FBS; Gibco, BRL), 2% L-Glutamine (Sigma, Saint Louis, MO, USA) and Penicillin-G (Sigma, Saint Louis, MO, USA) at 37 °C in a humidified incubator with 10% CO2.
2 x 10^5 live cells/mL (100 µL per well) were seeded in a 96 well-plate under permissive conditions. After 24 h, cells were exposed to different concentrations of free Dx and Dx-loaded or unloaded NSAID-based NPs suspension (0.25, 0.125, 0.09, 0.045, 0.023 and, 0.011 mg/ml) and cell viability was determined after 24 h of incubation with NPs. AlamarBlue (Invitrogen) was used to determine cell viability. Absorbance at 570 nm was measured by a Multi-Detection Microplate Reader Synergy HT (BioTek Instruments; Vermont, USA). The treatments were done in replicates (n = 8). Results of the experiments were expressed as percentage of relative cell viability (% respect to the control).

Turning to `C[C@@H]1C[C@H]2[C@@H]3CCC4=CC(=O)C=C[C@]4(C)[C@@]3(F)[C@@H](O)C[C@]2(C)[C@@]1(O)C(=O)CO` [free Dx, Dexamethasone], the cell viability result is “higher than 70%”.

Source of the values: patent EP3884963A1, “NAPROXEN/DEXAMETHASONE-BASED NANOPARTICLES” (Consejo Superior de Investigaciones Científicas (CSIC), priority 2020, dated 2021).
